Measurements as given in PubChem BioAssay (NCI).
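All cell lines were grown in 96-well plates and treated with compound for 48 hours. The concentration for 50% growth inhibition is given as GI50. At the TGI there is no net growth.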

Assays:
Assay in all cases: NCI tumour cell line growth inhibition, 48 h; in the data active = GI50 below about 0.43 µM; inactive = the rest
HCT-15 colon = test system: HCT-15 colon
MDA-MB-435 = test system: MDA-MB-435
MALME-3M melanoma = test system: MALME-3M melanoma
HS 578T breast = test system: HS 578T breast
SK-MEL-5 melanoma = test system: SK-MEL-5 melanoma
SNB-75 CNS = test system: SNB-75 CNS
KM12 colon = test system: KM12 colon
SK-MEL-28 melanoma = test system: SK-MEL-28 melanoma
NCI-H460 lung = test system: NCI-H460 lung
UACC-62 melanoma = test system: UACC-62 melanoma
HT29 colon = test system: HT29 colon
A549 NSCLC = test system: A549 NSCLC
A498 renal = test system: A498 renal
IGROV1 ovarian = test system: IGROV1 ovarian
RXF 393 renal = test system: RXF 393 renal
ACHN renal = test system: ACHN renal
PC-3 prostate = test system: PC-3 prostate
786-0 renal = test system: 786-0 renal
BT-549 breast = test system: BT-549 breast
OVCAR-4 ovarian = test system: OVCAR-4 ovarian
OVCAR-3 ovarian = test system: OVCAR-3 ovarian
SF-295 CNS = test system: SF-295 CNS
HOP-92 NSCLC = test system: HOP-92 NSCLC
HL-60(TB) leukemia = test system: HL-60(TB) leukemia
SF-539 CNS = test system: SF-539 CNS
OVCAR-8 ovarian = test system: OVCAR-8 ovarian
CCRF-CEM leukemia = test system: CCRF-CEM leukemia
K-562 leukemia = test system: K-562 leukemia
MDA-N = test system: MDA-N
MOLT-4 leukemia = test system: MOLT-4 leukemia
TK-10 renal = test system: TK-10 renal
UO-31 renal = test system: UO-31 renal
SK-OV-3 ovarian = test system: SK-OV-3 ovarian
OVCAR-5 ovarian = test system: OVCAR-5 ovarian
NCI-H23 lung = test system: NCI-H23 lung
HCT-116 colon = test system: HCT-116 colon
HOP-62 NSCLC = test system: HOP-62 NSCLC
UACC-257 melanoma = test system: UACC-257 melanoma
SNB-19 CNS = test system: SNB-19 CNS
M14 melanoma = test system: M14 melanoma
SK-MEL-2 melanoma = test system: SK-MEL-2 melanoma
U251 CNS = test system: U251 CNS
LOX IMVI melanoma = test system: LOX IMVI melanoma
SF-268 CNS = test system: SF-268 CNS
COLO 205 colon = test system: COLO 205 colon
T-47D breast = test system: T-47D breast
NCI-H522 lung = test system: NCI-H522 lung
EKVX NSCLC = test system: EKVX NSCLC
SN12C renal = test system: SN12C renal
MCF7 breast = test system: MCF7 breast
DU-145 prostate = test system: DU-145 prostate
SW-620 colon = test system: SW-620 colon
RPMI-8226 leukemia = test system: RPMI-8226 leukemia
NCI/ADR-RES ovarian = test system: NCI/ADR-RES ovarian
MDA-MB-231 breast = test system: MDA-MB-231 breast
CAKI-1 renal = test system: CAKI-1 renal
SR leukemia = test system: SR leukemia

C/C(=N\[N+](C)(C)C)c1ccc(C)c(C)c1
inactive: GI50 (HCT-15 colon) > 100 µM | GI50 (MALME-3M melanoma) > 100 µM | GI50 (HS 578T breast) > 100 µM | GI50 (SK-MEL-28 melanoma) > 100 µM | GI50 (ACHN renal) > 100 µM | GI50 (786-0 renal) > 100 µM | GI50 (HOP-92 NSCLC) > 100 µM | GI50 (SF-539 CNS) > 100 µM | GI50 (MOLT-4 leukemia) > 100 µM | GI50 (HOP-62 NSCLC) > 100 µM | GI50 (M14 melanoma) > 100 µM | GI50 (LOX IMVI melanoma) > 100 µM | GI50 (SF-268 CNS) > 100 µM | GI50 (MCF7 breast) > 100 µM | GI50 (NCI/ADR-RES ovarian) > 100 µM | GI50 (MDA-MB-231 breast) > 100 µM | GI50 (CAKI-1 renal) > 100 µM
> 100 µM: TGI (HCT-15 colon) | TGI (MDA-MB-435) | TGI (MALME-3M melanoma) | TGI (HS 578T breast) | TGI (SK-MEL-5 melanoma) | TGI (SNB-75 CNS) | TGI (KM12 colon) | TGI (SK-MEL-28 melanoma) | TGI (NCI-H460 lung) | TGI (UACC-62 melanoma) | TGI (HT29 colon) | TGI (A549 NSCLC) | TGI (A498 renal) | TGI (IGROV1 ovarian) | TGI (RXF 393 renal) | TGI (ACHN renal) | TGI (PC-3 prostate) | TGI (786-0 renal) | TGI (BT-549 breast) | TGI (OVCAR-4 ovarian) | TGI (OVCAR-3 ovarian) | TGI (SF-295 CNS) | TGI (HOP-92 NSCLC) | TGI (HL-60(TB) leukemia) | TGI (SF-539 CNS) | TGI (OVCAR-8 ovarian) | TGI (CCRF-CEM leukemia) | TGI (K-562 leukemia) | TGI (MDA-N) | TGI (MOLT-4 leukemia) | TGI (TK-10 renal) | TGI (UO-31 renal) | TGI (SK-OV-3 ovarian) | TGI (OVCAR-5 ovarian) | TGI (NCI-H23 lung) | TGI (HCT-116 colon) | TGI (HOP-62 NSCLC) | TGI (SNB-19 CNS) | TGI (M14 melanoma) | TGI (SK-MEL-2 melanoma) | TGI (U251 CNS) | TGI (LOX IMVI melanoma) | TGI (SF-268 CNS) | TGI (T-47D breast) | TGI (NCI-H522 lung) | TGI (EKVX NSCLC) | TGI (MCF7 breast) | TGI (DU-145 prostate) | TGI (SW-620 colon) | TGI (RPMI-8226 leukemia) | TGI (NCI/ADR-RES ovarian) | TGI (MDA-MB-231 breast) | TGI (CAKI-1 renal) | TGI (SR leukemia)
69.7 µM: TGI (SN12C renal)
26.7 µM: TGI (UACC-257 melanoma)
38.3 µM: TGI (COLO 205 colon)
